These results are taken from US6083957A, “Heterocyclic compounds and their preparation and use” (Novo Nordisk A/S, priority 1996, dated 2000).

Molecules are shown by their SMILES.

In experiment [1] the target is muscarinic acetylcholine receptors. Put plainly: inhibition of specific binding of 3H-Oxotremorine-M (3H-Oxo), rat cortex homogenate. The arrangement: species or system male Wistar rats. The settings on record: 1.0 nM 3H-Oxotremorine, pH 7.4, 30 min, 25° C. The source says: The pharmacological properties of the compounds of the invention can be illustrated by determining their capability to inhibit the specific binding of ^3 H-Oxotremorine-M (^3 H-Oxo). Birdsdall N. J. M., Hulme E. C., and Burgen A. S. V. (1980). "The Character of Muscarinic Receptors in Different Regions of the Rat Brain". Proc. Roy. Soc. London (Series B) 207,1.
The inhibitory effects of compounds on ^3 H-Oxo binding reflects the affinity for muscarinic acetylcholine receptors.
All preparations are performed at 0-4° C. unless otherwise indicated. Fresh cortex (0.1-1 g) from male Wistar rats (150-250 g) is homogenized for 5-10 s in 10 ml 20 mM Hepes pH: 7.4, with an Ultra-Turrax homogenizer. The homogenizer is rinsed with 10 ml of buffer and the combined suspension centrifuged for 15 min. at 40,000×g. The pellet is washed three times with buffer. In each step the pellet is homogenized as before in 2×10 ml of buffer and centrifuged for 10 min. at 40,000×g.
The final pellet is homogenized in 20 mM Hepes pH: 7.4 (100 ml per g of original tissue) and used for binding assay. Aliquots of 0.5 ml is added 25 ul of test solution and 25 ul of ^3 H-Oxotremorine (1.0 nM, final concentration) mixed and incubated for 30 min. at 25° C. Non-specific binding is determined in triplicate using arecoline (1 ug/ml, final concentration) as the test substance. After incubation samples are added 5 ml of ice-cold buffer and poured directly onto Whatman GF/C glass fiber filters under suction and immediately washed 2 times with 5 ml of ice-cold buffer. The amount of radioactivity on the filters are determined by conventional liquid scintillation counting. Specific binding is total binding minus non specific binding.
Test substances are dissolved in 10 ml water (if necessary heated on a steam-bath for less than 5 min.) at a concentration of 2.2 mg/ml. 25-75% inhibition of specific binding must be obtained before calculation of IC50.
The test value will be given as IC50 (the concentration (nM) of the test substance which inhibits the specific binding of ^3 H-Oxo by 50%).
(§1) IC50 =(applied test substance concentration) [formula] where Co is specific binding in control assays and Cx is the specific binding in the test assay. (The calculations assume normal mass-action kinetics).

Experiment [2] has as its target T1, subtype of muscarinic receptors (M1-site) (Rattus norvegicus, UniProt P08482).
T1 construct: from tissue; host or cells: rat cerebral cortex membranes (male Wistar rats)
T1 sequence (P08482 1-460): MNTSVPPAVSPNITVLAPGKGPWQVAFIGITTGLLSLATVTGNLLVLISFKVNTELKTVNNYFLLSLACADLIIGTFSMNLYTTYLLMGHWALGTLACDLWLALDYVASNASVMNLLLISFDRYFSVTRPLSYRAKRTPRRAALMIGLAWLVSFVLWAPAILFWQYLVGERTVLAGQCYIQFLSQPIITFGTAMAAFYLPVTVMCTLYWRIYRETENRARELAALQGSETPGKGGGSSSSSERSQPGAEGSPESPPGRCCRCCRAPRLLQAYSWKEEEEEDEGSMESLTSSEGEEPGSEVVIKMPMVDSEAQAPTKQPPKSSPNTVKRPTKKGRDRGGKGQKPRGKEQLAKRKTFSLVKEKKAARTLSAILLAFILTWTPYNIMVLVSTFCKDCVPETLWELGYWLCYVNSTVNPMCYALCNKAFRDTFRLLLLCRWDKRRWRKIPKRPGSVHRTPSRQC
Put plainly: inhibition of 3H-PRZ (pirenzepine, [N-methyl-3H]) binding to rat cerebral cortex membranes. Also noted: species or system male Wistar rats. The settings on record: 1.0 nM 3H-Pirenzepine, pH 7.4, 60 min, 20° C, read-out: IC50, 3H-Pz.
Excerpt: Furthermore the pharmacological properties of the compounds of the invention can also be illustrated by determining their capability to inhibit ^3 H-PRZ (pirenzepine, [N-methyl-^3 H]) binding to rat cerebral cortex membranes.
Pirenzepine binds selectively to subtype of muscarinic receptors. Historically the type is named the M1 -site, whereas pirenzepine sensitive site would be more appropriate. Although selective for M1 -sites pirenzepine also interact with M2 -sites.
All preparations are performed at 0-4° C. unless otherwise indicated. Fresh cortex (0.1-1 g) from male Wistar rats (150-200 g) is homogenized for 5-10 s. in 10 ml 20 mM Hepes pH: 7.4, with an Ultra-Turraxhomogenizer. The homogenizer is rinzed with 2×10 ml of buffer and the combined suspension centrifuged for 15 min at 40,000 xg. The pellet is washed three times with buffer. In each step the pellet is homogenized as before in 3×10 ml of buffer and centrifuged for 10 min at 40,000 xg.
The final pellet is homogenized in 20 mM Hepes pH: 7.4 (100 ml per g of original tissue) and used for binding assay. Aliquots of 0.5 ml is added 20 μl of test solution and 25 μl of ^3 H-Pirenzepine·(1.0 nM, final conc.), mixed and incubated for 60 min at 20° C. Non-specific binding is determined in triplicate using atropine (1 μg/ml, final conc.) as the test substance. After incubation samples are added 5 ml of ice-cold buffer and poured directly onto Whatman GF/C glass fiber filters inder suction and immediately washed 2 times with 5 ml of ice-cold buffer. The amount of radioactivity on the filters are determined by conventional liquid scintillation counting. Specific binding is total binding minus non-specific binding.
Test substances are dissolved in 10 ml water, at a concentration of 0.22 mg/ml. 25-75% inhibition of specific binding must be obtained before calculation of IC50.
The test value will be given as IC50 (the concentration, nM) of the test substance which inhibits the specific binding of ^3 H-PRZ by 50%.
as §1

Turning to `CCCCSc1nsnc1[C@H]1C[N@@+]2(C)CCC[C@@H]1C2` (relative stereo) [Compound 5, Endo 6-(3-Butylthio-1,2,5-thiadiazol-4-yl)-1-methyl-1-azabicyclo[3.2.1]octane iodide], the IC50 in experiment [1] came out at 3.3 nM; in experiment [2], 8.8 nM.
For the compound `CCCCCSc1nsnc1[C@H]1C[N@@+]2(C)CCC[C@@H]1C2` (relative stereo) [Compound 6, Endo 6-(3-Pentylthio-1,2,5-thiadiazol-4-yl)-1-methyl-1-azabicyclo[3.2.1]octane iodide], the results for the half-inhibitory concentration (IC50) in experiment [1] and in experiment [2] were 4.8 nM and 2.3 nM, respectively.
`CCCCCSc1nsnc1[C@@H]1C[N@@+]2(C)CCC[C@@H]1C2` (relative stereo) [Compound 7, Exo 6-(3-Pentylthio-1,2,5-thiadiazol-4-yl)-1-methyl-1-azabicyclo[3.2.1]octane iodide]: the IC50 in experiment [1] is 4.9 nM; in experiment [2] it was 135 nM.
`C[N+]12CCCC(C1)C(c1nsnc1OCC#Cc1ccsc1)C2` (single isomer, unassigned) [Compound 11, Exo(+) 6-(3-(3-(3-Thienyl)-2-propyn-1-yloxy)-1,2,5-thiadiazol-4-yl)-1-azabicyclo[3.2.1]-octane iodide]: the IC50 in experiment [1] amounted to 35 nM.
On to `C[N+]12CCCC(C1)C(c1nsnc1OCC#Cc1cccs1)C2` (single isomer, unassigned) [Compound 12, Exo(+) 6-(3-(3-(2-Thienyl)-2-propyn-1-yloxy)-1,2,5-thiadiazol-4-yl)-1-azabicyclo[3.2.1]-octane iodide], for which, in experiment [1], the IC50 was found to be 63 nM.
Still for that read-out and setting: in the case of `C[N+]12CCCC(C1)C(c1nsnc1SCC#Cc1ccccc1)C2` (single isomer, unassigned) [Compound 13, Exo(+) 6-(3-(3-(3-Phenyl)-2-propyn-1-ylthio)-1,2,5-thiadiazol-4-yl)-1-azabicyclo[3.2.1]-octane iodide] it was 13 nM.
Consider `CCCCCCSc1nsnc1C1=CCC[N+](C)(C)C1` [Compound 1, 3-(3-Hexylthio-1,2,5-thiadiazol-4-yl)-1,2,5,6-tetrahydro-1,1-dimethylpyridinium iodide], for which the half-inhibitory concentration (IC50) in experiment [1] turned out to be 3.4 nM; in experiment [2], 6 nM.
For `CCCCCCOc1nsnc1C1=CCC[N+](C)(C)C1` [Compound 2, 3-(3-Hexyloxy-1,2,5-thiadiazol-4-yl)-1,2,5,6-tetrahydro-1,1-dimethylpyridinium iodide], the IC50 turned out to be 3.3 nM in experiment [1] and 9 nM in experiment [2].
With `CCOc1nsnc1C1=CCC[N+](C)(C)C1` [Compound 3, 3-(3-Ethoxy-1,2,5-thiadiazol-4-yl)-1,2,5,6-tetrahydro-1,1-dimethylpyridinium iodide], the IC50 in experiment [1] was determined as 0.59 nM; in experiment [2] it was 4.5 nM.
In the case of `CCCCSc1nsnc1C1C[N+]2(C)CCC1CC2` (centres unmarked) [Compound 4, 3-(3-Butylthio-1,2,5-thiadiazol-4-yl)-1-methyl-1-azabicyclo[2.2.2]octane iodide], the half-inhibitory concentration (IC50) is 1.5 nM in experiment [1] and 4.9 nM in experiment [2].
In the case of `CCSc1nsnc1C1=CCC[N+](C)(CC)C1` (centres unmarked) [Compound 8, 3-(3-Ethylthio-1,2,5-thiadiazol-4-yl)-1,2,5,6-tetrahydro-1-ethyl-1-methylpyridinium iodide], the IC50 is 3.5 nM in experiment [1] and 28 nM in experiment [2].
On to `CCSc1nsnc1C1=CCC[N+](C)(C)C1` [Compound 9, 3-(3-Ethylthio-1,2,5-thiadiazol-4-yl)-1,2,5,6-tetrahydro-1,1-dimethylpyridinium iodide], for which the half-maximal inhibitory concentration (IC50) was 1.6 nM in experiment [1] and 26 nM in experiment [2].
For the compound `CCOc1nsnc1C1=CCC[N+](C)(CC)C1` (centres unmarked) [Compound 10, 3-(3-Ethoxy-1,2,5-thiadiazol-4-yl)-1,2,5,6-tetrahydro-1-ethyl-1-methyl-pyridinium iodide], the IC50 in experiment [1] amounted to 15.5 nM; in experiment [2], 56 nM.

As usually defined, the IC50 is the midpoint of a concentration-inhibition curve.
